Measurements taken from patent publication US10968198B2, “Biaryltriazole inhibitors of macrophage migration inhibitory factor” (YALE UNIVERSITY, priority 2015, dated 2021).

Target: human MIF (Homo sapiens (Human), UniProt P14174)
Experiment: X-ray crystallography of complexes with human MIF
Conditions: co-crystal or soak
Experimental: The solution was centrifuged at 13,000×g to remove precipitated compound and used to set up hanging-drop crystallization experiments. A reservoir of 2.0 M ammonium sulfate, 0.1 M Tris pH 7, and 3% isopropanol was added to the protein solution in a 1:1 ratio and stored at 20° C. Diffraction-quality crystals with a rod morphology grew within two weeks. The crystals were cryo-protected in 25% glycerol, 2.0M ammonium sulfate, 0.1 M Tris pH 7, and 3% isopropanol. Data was collected at the Advanced Photon Source remotely on the NE-CAT 24-ID-E beam line. […] Crystals were obtained by the hanging-drop method at 20° C. A reservoir of 2.2 M ammonium sulfate, 0.1 M Tris pH 7, and 3% isopropanol mixed in a 1:1 ratio with rhMIF (16 mg/mL) was used to produce 2 μL drops. […] Crystals were cryo-protected with 25% glycerol, 2.2 M ammonium sulfate, 0.1 M Tris pH 7, and 3% isopropanol. […] HKL2000 was used to index, integrate, and scale the MIF-3a data set in the […] space group and the MIF-3b in the P212121 space group. Phases were obtained by molecular replacement with PDB file 3U18 using the CCP4 and PHASER programs. Model building was performed in COOT with iterative restrained refinement with REFMAC.

Structure (SMILES)	binding site in X-ray crystal structure of complex with human MIF
Oc1ccc(-n2cc(-c3ccc4ccccc4n3)nn2)cc1 [Example 3a, 4-(4-(quinolin-2-yl)-1H-1,2,3-triazol-1-yl)phenol]	binding of these inhibitors in the tautomerase active site
COCCOc1ccc2nc(-c3cn(-c4ccc(O)cc4)nn3)ccc2c1 [Example 3b, 4-(4-(6-(2-methoxyethoxy)quinolin-2-yl)-1H-1,2,3-triazol-1-yl)phenol]	binding of these inhibitors in the tautomerase active site
Oc1ccc(-n2cc(-c3ccc4cc(OCCOCCN5CCOCC5)ccc4n3)nn2)cc1 [Example 3v, 4-(4-(6-(2-(2-morpholinoethoxy)ethoxy)quinolin-2-yl)-1H-1,2,3-triazol-1-yl)phenol]	binding of these inhibitors in the tautomerase active site
